In patent US11459338B2, “Heterocyclic compounds as PRMT5 inhibitors” (JUBILANT EPISCRIBE LLC, priority 2018, dated 2022) one finds GI50 and IC50 data, which are given here for 22 compounds.

The GI50 is the concentration giving 50% growth inhibition. What is called IC50 is the concentration that inhibits the measured activity by half.

For one test, the system named is Z-138 cells. The experiment in a line: Z-138 long term proliferation assay (Cell Titer Glo). The format is cell-based. The note with it: Homo sapiens, 192 h; Z-138 cells, cell viability, day 8; read-out: PRMT5 Z138 GI50 Day 8 μM. The method, then: A compound source plate was prepared by performing ten-point 3-fold dilution in DMSO, such that the final top concentration of the compound was 10 μM, and DMSO was 0.3%. The total volume of compounds added was 20 μL. The cells were incubated for 96 h at 37° C., 5% CO2. […] The cells were re-treated with the compounds and incubated for an additional four days. Cell viability was measured on both day 4 and day 8, by adding 25 μL of Cell Titer Glo reagent to an equal volume of cell suspension. Luminescence was read on a PerkinElmer Victor3 multiplate reader. The concentration of compound inhibiting cell viability by 50% was determined using a 4-parameter, variable slope fit of the normalized dose response curves.
(ATP-based viability assays read luminescence as a measure of living cells.)

The next test deals with T1, PRMT5/MEP50 (Homo sapiens, UniProt O14744).
T1 construct: Full-length human PRMT5 (NP_006100)
T1 sequence (O14744 whole entry): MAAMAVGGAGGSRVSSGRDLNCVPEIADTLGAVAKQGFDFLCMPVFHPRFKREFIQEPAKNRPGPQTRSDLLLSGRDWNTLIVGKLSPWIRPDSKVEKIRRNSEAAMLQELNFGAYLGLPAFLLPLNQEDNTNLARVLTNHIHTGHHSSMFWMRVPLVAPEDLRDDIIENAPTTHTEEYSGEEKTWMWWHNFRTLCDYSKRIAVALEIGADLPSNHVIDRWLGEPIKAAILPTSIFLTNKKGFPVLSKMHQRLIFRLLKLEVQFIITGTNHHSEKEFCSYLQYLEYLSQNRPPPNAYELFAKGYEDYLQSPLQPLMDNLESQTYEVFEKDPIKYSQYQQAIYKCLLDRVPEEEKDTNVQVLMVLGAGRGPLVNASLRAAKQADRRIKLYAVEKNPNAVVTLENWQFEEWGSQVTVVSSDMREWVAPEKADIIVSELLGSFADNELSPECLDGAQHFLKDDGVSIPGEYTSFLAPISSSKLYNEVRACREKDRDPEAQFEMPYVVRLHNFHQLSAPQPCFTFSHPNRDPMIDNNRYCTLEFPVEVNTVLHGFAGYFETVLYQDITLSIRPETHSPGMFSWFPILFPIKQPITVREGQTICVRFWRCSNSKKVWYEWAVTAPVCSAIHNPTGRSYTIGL
T1 sequence (Q9BQA1 whole entry partner): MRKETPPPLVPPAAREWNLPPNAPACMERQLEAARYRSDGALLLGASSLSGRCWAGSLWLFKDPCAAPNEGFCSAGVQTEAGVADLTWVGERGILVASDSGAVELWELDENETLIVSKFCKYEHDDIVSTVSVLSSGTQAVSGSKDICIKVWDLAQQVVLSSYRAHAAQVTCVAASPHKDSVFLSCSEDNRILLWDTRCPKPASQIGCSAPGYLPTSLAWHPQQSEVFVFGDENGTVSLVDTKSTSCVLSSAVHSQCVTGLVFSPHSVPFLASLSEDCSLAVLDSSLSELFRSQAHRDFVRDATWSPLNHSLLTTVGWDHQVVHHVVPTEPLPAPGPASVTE
The test is described as follows: PRMT5/MEP50 enzyme assay on peptide substrates (3H-SAM Flashplate). Format: biochemical. The following applies: PRMT5/MEP50 10 nM, H4 1-15aa peptide 100 nM, 3H-SAM 1 μM. The source says:
General materials like S-adenocylmethionine (SAM), S-adenosylhomocysteine (SAH), Tris-HCl, DTT, […] (BSA) and Tween-20 were purchased from Sigma-Aldrich. 3H-SAM and 384-well streptavidin Flashplates were purchased from Perkin Elmer. Substrates that were used were Peptide representative of human Histone 4 residues 1-15 which was purchased from Rockland antibodies and assays.
PRMT5/MEP50 Enzyme assay on Peptide Substrates.
The assays were all performed in a buffer consisting of 50 mMTris-HCl, pH 8, 1 mM DTT, 0.01% BSA, 0.01% Tween-20, prepared on the day of use. Test compounds were diluted 3-fold in assay buffer (final DMSO concentration of 1%) and added into a 384-well OptiPlate (PerkinElmer, #6007290). A cocktail (10 μL) of PRMT5/MEP50 enzyme and the peptide was added to the wells. The compounds were allowed to incubate with PRMT5/MEP50 for 30 min at room temperature, then 5 μL of ^3H-SAM was added to initiate the reaction. The final concentrations of the components were as follows: PRMT5/MEP50-10 nM, H4, 1-15aa peptide-100 nM, ^3H-SAM-1 μM. The assays were stopped by the addition of 1 mM SAH. 25 μL of the reaction from the 384-well OptiPlate was then transferred to a 384-well Flashplate and the biotinylated peptides were allowed to bind to the streptavidin surface for at least 1 h, before being washed twice with 50 mMTris-HCl, pH 8, 0.1% Tween-20. The plates were then read in a PerkinElmer Topcount plate reader to measure the quantity of ^3H-labeled peptide bound to the Flashplate surface measured as disintegrations per minute (dpm), also referred to as counts per minute (cpm).
The IC50 values were calculated using a 4-parameter variable slope fit algorithm (cpm—counts per minute, cmpd—signal in assay well, and cpmmax and cpmmin mare the respective minimum and maximum signal controls).

Consider `CC(=O)N1CCC(C2CCc3nc(C(=O)NC[C@H](O)CN4CCc5ccccc5C4)cn3C2)CC1` (single isomer, unassigned) [Example 118A], for which the GI50 in the test with Z-138 cells lay within 10 to 1000 nM. This compound displayed a half-inhibitory concentration (IC50) at PRMT5/MEP50 of 10 to 1000 nM.

With `O=C(NC[C@H](O)CN1CCc2ccccc2C1)c1cn2cc(-c3cnn(C4COC4)c3)ccc2n1` [Example 22, (S)—N-(3-(3,4-dihydroisoquinolin-2(1H)-yl)-2-hydroxypropyl)-6-(1-(oxetan-3-yl)-1H-pyrazol-4-yl)imidazo[1,2-a]pyridine-2-carboxamide], in the test with Z-138 cells, the 50% growth inhibitory concentration (GI50) lay within 10 to 1000 nM. Besides, the IC50 against PRMT5/MEP50 fell in the range of 10 to 1000 nM.

With `CC(C)c1nc(-c2ccc3nc(C(=O)NC[C@H](O)CN4CCc5ccccc5C4)cn3c2)no1` [Example 24, (S)—N-(3-(3,4-dihydroisoquinolin-2(1H)-yl)-2-hydroxypropyl)-6-(5-isopropyl-1,2,4-oxadiazol-3-yl)imidazo[1,2-a]pyridine-2-carboxamide], the GI50 in the test with Z-138 cells lay within 10 to 1000 nM. The same compound displayed an IC50 at PRMT5/MEP50 of 10 to 1000 nM.

For the compound `O=C(NC[C@H](O)CN1CCc2ccccc2C1)c1cn2cc(-c3noc(C4CC4)n3)ccc2n1` [Example 25, (S)-6-(5-cyclopropyl-1,2,4-oxadiazol-3-yl)-N-(3-(3,4-dihydroisoquinolin-2(1H)-yl)-2-hydroxypropyl)imidazo[1,2-a]pyridine-2-carboxamide], the 50% growth inhibitory concentration (GI50) in the test on Z-138 cells fell in the range of 10 to 1000 nM. On PRMT5/MEP50, this compound displayed an IC50 of 10 to 1000 nM.

With `O=C(NC[C@H](O)CN1CCc2ccccc2C1)c1cn2cc(C3CCOCC3)ccc2n1` [Example 26, (S)—N-(3-(3,4-dihydroisoquinolin-2(1H)-yl)-2-hydroxypropyl)-6-(tetrahydro-2H-pyran-4-yl)imidazo[1,2-a]pyridine-2-carboxamide], the GI50 in the test with Z-138 cells is 10 to 1000 nM. This compound also came in with an IC50 against PRMT5/MEP50 of 10 to 1000 nM.

On to `CC(=O)N1CCC(c2ccc3nc(C(=O)NC[C@H](O)CN4CCc5ccccc5C4)cn3c2)CC1` [Example 27, (S)-6-(1-acetylpiperidin-4-yl)-N-(3-(3,4-dihydroisoquinolin-2(1H)-yl)-2-hydroxypropyl)imidazo[1,2-a]pyridine-2-carboxamide], for which the concentration for 50% growth inhibition (GI50) with Z-138 cells lay within 10 to 1000 nM. The same compound had an IC50 against PRMT5/MEP50 of 10 to 1000 nM.

`Cc1ncc(-c2ccc3nc(C(=O)NC[C@H](O)CN4CCc5ccccc5C4)cn3c2)cn1` [Example 28, (S)—N-(3-(3,4-dihydroisoquinolin-2(1H)-yl)-2-hydroxypropyl)-6-(2-methylpyrimidin-5-yl)imidazo[1,2-a]pyridine-2-carboxamide]: in the test with Z-138 cells, the GI50 lay in the range of 10 to 1000 nM. In addition, at PRMT5/MEP50, the IC50 is 10 to 1000 nM.

Regarding `Cc1ccc(-c2ccc3nc(C(=O)NC[C@H](O)CN4CCc5ccccc5C4)cn3c2)cn1` [Example 29, (S)—N-(3-(3,4-dihydroisoquinolin-2(1H)-yl)-2-hydroxypropyl)-6-(6-methylpyridin-3-yl)imidazo[1,2-a]pyridine-2-carboxamide], the GI50 with Z-138 cells is 10 to 1000 nM. The 50% inhibitory concentration (IC50) against PRMT5/MEP50 was in the range of 10 to 1000 nM.

`Cc1ccc(-c2ccc3nc(C(=O)NC[C@H](O)CN4CCc5ccccc5C4)cn3c2)nn1` [Example 30, (S)—N-(3-(3,4-dihydroisoquinolin-2(1H)-yl)-2-hydroxypropyl)-6-(6-methylpyridazin-3-yl)imidazo[1,2-a]pyridine-2-carboxamide]: the 50% growth inhibitory concentration (GI50) with Z-138 cells lay within 10 to 1000 nM. At PRMT5/MEP50, the IC50 is 10 to 1000 nM.

On to `Cc1ncc(-c2ccc3nc(C(=O)NC[C@H](O)CN4CCc5ccccc5C4)cn3c2)s1` [Example 31, (S)—N-(3-(3,4-dihydroisoquinolin-2(1H)-yl)-2-hydroxypropyl)-6-(2-methylthiazol-5-yl)imidazo[1,2-a]pyridine-2-carboxamide], for which the GI50 in the test on Z-138 cells fell in the range of 10 to 1000 nM. For the same compound, at PRMT5/MEP50, the IC50 is 10 to 1000 nM.

On to `Cc1nc(-c2ccc3nc(C(=O)NC[C@H](O)CN4CCc5ccccc5C4)cn3c2)sc1C` [Example 32, (S)—N-(3-(3,4-dihydroisoquinolin-2(1H)-yl)-2-hydroxypropyl)-6-(4,5-dimethylthiazol-2-yl)imidazo[1,2-a]pyridine-2-carboxamide], for which, in the test on Z-138 cells, the concentration for 50% growth inhibition (GI50) was in the range of 10 to 1000 nM. The 50% inhibitory concentration (IC50) at PRMT5/MEP50 fell in the range of 10 to 1000 nM.

`O=C(NC[C@H](O)CN1CCc2ccccc2C1)c1cn2cc(-c3ccc(Cl)cn3)ccc2n1` [Example 33, (S)-6-(5-chloropyridin-2-yl)-N-(3-(3,4-dihydroisoquinolin-2(1H)-yl)-2-hydroxypropyl)imidazo[1,2-a]pyridine-2-carboxamide]: the concentration for 50% growth inhibition (GI50) in the test on Z-138 cells was in the range of 10 to 1000 nM. On PRMT5/MEP50, this compound displayed an IC50 of 10 to 1000 nM.

Regarding `Cn1cc(-c2ccc3nc(C(=O)NC[C@H](O)CN4CCc5ccccc5C4)cn3c2)ccc1=O` [Example 34, (S)—N-(3-(3,4-dihydroisoquinolin-2(1H)-yl)-2-hydroxypropyl)-6-(1-methyl-6-oxo-1,6-dihydropyridin-3-yl)imidazo[1,2-a]pyridine-2-carboxamide], the 50% growth inhibitory concentration (GI50) with Z-138 cells fell in the range of 10 to 1000 nM. On PRMT5/MEP50, this compound yielded an IC50 of 10 to 1000 nM.

For `Cn1ccc(-c2ccc3nc(C(=O)NC[C@H](O)CN4CCc5ccccc5C4)cn3c2)cc1=O` [Example 35, (S)—N-(3-(3,4-dihydroisoquinolin-2(1H)-yl)-2-hydroxypropyl)-6-(1-methyl-2-oxo-1,2-dihydropyridin-4-yl)imidazo[1,2-a]pyridine-2-carboxamide], in the test on Z-138 cells, the GI50 is 10 to 1000 nM. On PRMT5/MEP50, this compound registered a concentration for half-maximal inhibition (IC50) of 10 to 1000 nM.

`CC(C)n1cc(-c2ccc3nc(C(=O)NC[C@H](O)CN4CCc5ccccc5C4)cn3c2)nn1` [Example 37, (S)—N-(3-(3,4-dihydroisoquinolin-2(1H)-yl)-2-hydroxypropyl)-6-(1-isopropyl-1H-1,2,3-triazol-4-yl)imidazo[1,2-a]pyridine-2-carboxamide]: the GI50 with Z-138 cells was 10 to 1000 nM. Moreover, the IC50 on PRMT5/MEP50 lay within 10 to 1000 nM.

As to `CNC(=O)c1ccc2nc(C(=O)NC[C@H](O)CN3CCc4ccccc4C3)cn2c1` [Example 38, (S)—N2-(3-(3,4-dihydroisoquinolin-2(1H)-yl)-2-hydroxypropyl)-N6-methylimidazo[1,2-a]pyridine-2,6-dicarboxamide], the concentration for 50% growth inhibition (GI50) with Z-138 cells fell in the range of 10 to 1000 nM. On PRMT5/MEP50, this compound returned an IC50 of 10 to 1000 nM.

Consider `NS(=O)(=O)c1ccc2nc(C(=O)NC[C@H](O)CN3CCc4ccccc4C3)cn2c1` [Example 40, (S)—N-(3-(3,4-dihydroisoquinolin-2(1H)-yl)-2-hydroxypropyl)-6-sulfamoylimidazo[1,2-a]pyridine-2-carboxamide], for which the 50% growth inhibitory concentration (GI50) in the test on Z-138 cells was above 5000 nM. The compound also came in with an IC50 on PRMT5/MEP50 of 1000 to 5000 nM.

For the compound `Cn1ccc(-c2cnc3nc(C(=O)NC[C@H](O)CN4CCc5ccccc5C4)cn3c2)cc1=O` [Example 44, (S)—N-(3-(3,4-dihydroisoquinolin-2(1H)-yl)-2-hydroxypropyl)-6-(1-methyl-2-oxo-1,2-dihydropyridin-4-yl)imidazo[1,2-a]pyrimidine-2-carboxamide], the concentration for 50% growth inhibition (GI50) in the test on Z-138 cells is 10 to 1000 nM. This compound displayed a half-maximal inhibitory concentration (IC50) at PRMT5/MEP50 of 10 to 1000 nM.

For `Cn1cc(-c2ccc3nc(C(=O)NC[C@H](O)CN4CCc5ccccc5C4)cn3n2)cn1` [Example 46, (S)—N-(3-(3,4-dihydroisoquinolin-2(1H)-yl)-2-hydroxypropyl)-6-(1-methyl-1H-pyrazol-4-yl)imidazo[1,2-b]pyridazine-2-carboxamide], the 50% growth inhibitory concentration (GI50) with Z-138 cells lay within 10 to 1000 nM. This compound had an IC50 on PRMT5/MEP50 of 10 to 1000 nM.

With `CC(=O)N1CCC(c2ccc3nc(C(=O)NC[C@H](O)CN4CCc5ccccc5C4)cn3n2)CC1` [Example 49, (S)-6-(1-acetylpiperidin-4-yl)-N-(3-(3,4-dihydroisoquinolin-2(1H)-yl)-2-hydroxypropyl)imidazo[1,2-b]pyridazine-2-carboxamide], the GI50 in the test with Z-138 cells is 10 to 1000 nM. The compound further gave an IC50 on PRMT5/MEP50 of 10 to 1000 nM.

As for `O=C(NC[C@H](O)CN1CCc2ccccc2C1)c1cn2nc(C(F)(F)F)ccc2n1` [Example 50, (S)—N-(3-(3,4-dihydroisoquinolin-2(1H)-yl)-2-hydroxypropyl)-6-(trifluoromethyl)imidazo[1,2-b]pyridazine-2-carboxamide], the 50% growth inhibitory concentration (GI50) in the test with Z-138 cells is 1000 to 5000 nM. The IC50 against PRMT5/MEP50 is 1000 to 5000 nM.

With `Cn1cc(-c2cn3cc(C(=O)NC[C@H](O)CN4CCc5ccccc5C4)nc3cn2)ccc1=O` [Example 51, (S)—N-(3-(3,4-dihydroisoquinolin-2(1H)-yl)-2-hydroxypropyl)-6-(1-methyl-6-oxo-1,6-dihydropyridin-3-yl)imidazo[1,2-a]pyrazine-2-carboxamide], the GI50 in the test with Z-138 cells lay within 10 to 1000 nM. This compound displayed a half-maximal inhibitory concentration (IC50) against PRMT5/MEP50 of 10 to 1000 nM.
